PubChem BioAssay (NCI)
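Grown in 96-well plates, cells were treated for 48 hours with each compound at five concentrations. Insufficient inhibition: endpoint recorded as highest concentration tested. Here, GI50 denotes the concentration required for 50% inhibition of growth. TGI denotes the concentration required for complete inhibition of growth.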

System: HL-60(TB) leukemia
Experiment: NCI-60 cell line screen, 48 h

C/C(=C1/CCC/C(=C(/C)c2ccccc2)C1=O)c1ccccc1 and CCCS(=O)(=O)/C(=C(\c1ccc(Br)cc1)S(=O)(=O)CCC)c1ccc(Br)cc1 cannot be ordered by TGI: 27.9 µM for the first, over 10 µM for the second.

For O=C1NC2OCC(O)C(O)C2O1 (stereo not given), the TGI was over 100 µM.

System: HOP-18 NSCLC
Experiment: NCI-60 cell line screen, 48 h

With CC(=O)O.[Au].c1ccc([PH+](c2ccccc2)c2ccccc2)cc1 the GI50 was 2.14 µM.

First: CC(=O)O.[Au].c1ccc([PH+](c2ccccc2)c2ccccc2)cc1
Second: C/C(=C1/CCC/C(=C(/C)c2ccccc2)C1=O)c1ccccc1
The TGI of the first is lower: 3.86 µM for the first, over 100 µM for the second.

First: COC(=O)C(=O)C(C(=O)C=C(C)C)C(=O)C(=O)Nc1ccc(C)cc1C (stereo not given)
Second: COC(=O)C(=Cc1cc(OC)c(OC)c(OC)c1-c1cc2c(cc1C(C)=O)OCO2)C(=O)OC
The TGI of the first is higher: over 100 µM for the first, 87.4 µM for the second.

CCCS(=O)(=O)/C(=C(\c1ccc(Br)cc1)S(=O)(=O)CCC)c1ccc(Br)cc1 and O=C1NC2OCC(O)C(O)C2O1 (stereo not given) cannot be ordered by TGI: over 10 µM for the first, over 100 µM for the second.

System: HOP-62 NSCLC
Experiment: NCI-60 cell line screen, 48 h

In the case of CC(=O)O.[Au].c1ccc([PH+](c2ccccc2)c2ccccc2)cc1, the GI50 is reported as 13.7 µM.

CC(=O)O.[Au].c1ccc([PH+](c2ccccc2)c2ccccc2)cc1 and CCCS(=O)(=O)/C(=C(\c1ccc(Br)cc1)S(=O)(=O)CCC)c1ccc(Br)cc1 cannot be ordered by TGI: 27.7 µM for the first, over 10 µM for the second.

Going from COC(=O)C(=O)C(C(=O)C=C(C)C)C(=O)C(=O)Nc1ccc(C)cc1C (stereo not given) to COC(=O)C(=Cc1cc(OC)c(OC)c(OC)c1-c1cc2c(cc1C(C)=O)OCO2)C(=O)OC, the TGI falls from over 100 µM to 67.1 µM.

O=C1NC2OCC(O)C(O)C2O1 (stereo not given) showed a TGI of over 100 µM.

System: HOP-92 NSCLC
Experiment: NCI-60 cell line screen, 48 h

CC(=O)O.[Au].c1ccc([PH+](c2ccccc2)c2ccccc2)cc1 gave a GI50 of 3.02 µM.

Going from CC(=O)O.[Au].c1ccc([PH+](c2ccccc2)c2ccccc2)cc1 to C/C(=C1/CCC/C(=C(/C)c2ccccc2)C1=O)c1ccccc1, the TGI rises from 5.1 µM to over 100 µM.

COC(=O)C(=Cc1cc(OC)c(OC)c(OC)c1-c1cc2c(cc1C(C)=O)OCO2)C(=O)OC and CCCS(=O)(=O)/C(=C(\c1ccc(Br)cc1)S(=O)(=O)CCC)c1ccc(Br)cc1 cannot be ordered by TGI: 124 µM for the first, over 10 µM for the second.

Work on O=C1NC2OCC(O)C(O)C2O1 (stereo not given) yielded a TGI of over 100 µM.

System: HT29 colon
Experiment: NCI-60 cell line screen, 48 h

With CC(=O)O.[Au].c1ccc([PH+](c2ccccc2)c2ccccc2)cc1 the GI50 was 11.5 µM.

Going from CC(=O)O.[Au].c1ccc([PH+](c2ccccc2)c2ccccc2)cc1 to C/C(=C1/CCC/C(=C(/C)c2ccccc2)C1=O)c1ccccc1, the TGI rises from 32.5 µM to 86.8 µM (2.7-fold).

First: COC(=O)C(=O)C(C(=O)C=C(C)C)C(=O)C(=O)Nc1ccc(C)cc1C (stereo not given)
Second: COC(=O)C(=Cc1cc(OC)c(OC)c(OC)c1-c1cc2c(cc1C(C)=O)OCO2)C(=O)OC
The TGI of the first is higher: over 100 µM for the first, 77 µM for the second.

CCCS(=O)(=O)/C(=C(\c1ccc(Br)cc1)S(=O)(=O)CCC)c1ccc(Br)cc1 and O=C1NC2OCC(O)C(O)C2O1 (stereo not given) cannot be ordered by TGI: over 10 µM for the first, over 100 µM for the second.

System: IGROV1 ovarian
Experiment: NCI-60 cell line screen, 48 h

With CC(=O)O.[Au].c1ccc([PH+](c2ccccc2)c2ccccc2)cc1 the GI50 was 2.24 µM.

Compared with CC(=O)O.[Au].c1ccc([PH+](c2ccccc2)c2ccccc2)cc1, C/C(=C1/CCC/C(=C(/C)c2ccccc2)C1=O)c1ccccc1 is higher in TGI: 6.95 µM for the first, over 100 µM for the second.

COC(=O)C(=O)C(C(=O)C=C(C)C)C(=O)C(=O)Nc1ccc(C)cc1C (stereo not given) and COC(=O)C(=Cc1cc(OC)c(OC)c(OC)c1-c1cc2c(cc1C(C)=O)OCO2)C(=O)OC cannot be ordered by TGI: over 100 µM for the first, 134 µM for the second.

CCCS(=O)(=O)/C(=C(\c1ccc(Br)cc1)S(=O)(=O)CCC)c1ccc(Br)cc1 and O=C1NC2OCC(O)C(O)C2O1 (stereo not given) cannot be ordered by TGI: over 10 µM for the first, over 100 µM for the second.

System: K-562 leukemia
Experiment: NCI-60 cell line screen, 48 h

COC(=O)C(=O)C(C(=O)C=C(C)C)C(=O)C(=O)Nc1ccc(C)cc1C (stereo not given) and COC(=O)C(=Cc1cc(OC)c(OC)c(OC)c1-c1cc2c(cc1C(C)=O)OCO2)C(=O)OC cannot be ordered by TGI: over 100 µM for the first, over 211 µM for the second.

C/C(=C1/CCC/C(=C(/C)c2ccccc2)C1=O)c1ccccc1 and CCCS(=O)(=O)/C(=C(\c1ccc(Br)cc1)S(=O)(=O)CCC)c1ccc(Br)cc1 cannot be ordered by TGI: 47.1 µM for the first, over 10 µM for the second.

O=C1NC2OCC(O)C(O)C2O1 (stereo not given) was tested, and the TGI was over 100 µM.

System: KM12 colon
Experiment: NCI-60 cell line screen, 48 h

With CC(=O)O.[Au].c1ccc([PH+](c2ccccc2)c2ccccc2)cc1 the GI50 was 11.7 µM.

Compared with CC(=O)O.[Au].c1ccc([PH+](c2ccccc2)c2ccccc2)cc1, C/C(=C1/CCC/C(=C(/C)c2ccccc2)C1=O)c1ccccc1 is higher in TGI: 39.8 µM for the first, over 100 µM for the second.

Going from COC(=O)C(=O)C(C(=O)C=C(C)C)C(=O)C(=O)Nc1ccc(C)cc1C (stereo not given) to COC(=O)C(=Cc1cc(OC)c(OC)c(OC)c1-c1cc2c(cc1C(C)=O)OCO2)C(=O)OC, the TGI falls from over 100 µM to 70.4 µM.

CCCS(=O)(=O)/C(=C(\c1ccc(Br)cc1)S(=O)(=O)CCC)c1ccc(Br)cc1 and O=C1NC2OCC(O)C(O)C2O1 (stereo not given) cannot be ordered by TGI: over 10 µM for the first, over 100 µM for the second.

System: KM20L2 colon
Experiment: NCI-60 cell line screen, 48 h

With CC(=O)O.[Au].c1ccc([PH+](c2ccccc2)c2ccccc2)cc1 the GI50 was 10.3 µM.

Compared with CC(=O)O.[Au].c1ccc([PH+](c2ccccc2)c2ccccc2)cc1, C/C(=C1/CCC/C(=C(/C)c2ccccc2)C1=O)c1ccccc1 is higher in TGI: 35 µM for the first, over 100 µM for the second.

Going from COC(=O)C(=O)C(C(=O)C=C(C)C)C(=O)C(=O)Nc1ccc(C)cc1C (stereo not given) to COC(=O)C(=Cc1cc(OC)c(OC)c(OC)c1-c1cc2c(cc1C(C)=O)OCO2)C(=O)OC, the TGI falls from over 100 µM to 62.8 µM.

CCCS(=O)(=O)/C(=C(\c1ccc(Br)cc1)S(=O)(=O)CCC)c1ccc(Br)cc1 and O=C1NC2OCC(O)C(O)C2O1 (stereo not given) cannot be ordered by TGI: over 10 µM for the first, over 100 µM for the second.

System: LOX IMVI melanoma
Experiment: NCI-60 cell line screen, 48 h

In the case of CC(=O)O.[Au].c1ccc([PH+](c2ccccc2)c2ccccc2)cc1, the GI50 is reported as 2.54 µM.

Compared with CC(=O)O.[Au].c1ccc([PH+](c2ccccc2)c2ccccc2)cc1, C/C(=C1/CCC/C(=C(/C)c2ccccc2)C1=O)c1ccccc1 is higher in TGI: 7.98 µM for the first, over 100 µM for the second.

Compared with COC(=O)C(=O)C(C(=O)C=C(C)C)C(=O)C(=O)Nc1ccc(C)cc1C (stereo not given), COC(=O)C(=Cc1cc(OC)c(OC)c(OC)c1-c1cc2c(cc1C(C)=O)OCO2)C(=O)OC is lower in TGI: over 100 µM for the first, 79.4 µM for the second.

CCCS(=O)(=O)/C(=C(\c1ccc(Br)cc1)S(=O)(=O)CCC)c1ccc(Br)cc1 and O=C1NC2OCC(O)C(O)C2O1 (stereo not given) cannot be ordered by TGI: over 10 µM for the first, over 100 µM for the second.

System: LXFL 529 NSCLC
Experiment: NCI-60 cell line screen, 48 h

CC(=O)O.[Au].c1ccc([PH+](c2ccccc2)c2ccccc2)cc1 was tested, and the GI50 was 1.57 µM.

Compared with CC(=O)O.[Au].c1ccc([PH+](c2ccccc2)c2ccccc2)cc1, C/C(=C1/CCC/C(=C(/C)c2ccccc2)C1=O)c1ccccc1 is higher in TGI: 2.92 µM for the first, over 100 µM for the second.

First: COC(=O)C(=O)C(C(=O)C=C(C)C)C(=O)C(=O)Nc1ccc(C)cc1C (stereo not given)
Second: COC(=O)C(=Cc1cc(OC)c(OC)c(OC)c1-c1cc2c(cc1C(C)=O)OCO2)C(=O)OC
The TGI of the first is higher: over 100 µM for the first, 65.9 µM for the second.

CCCS(=O)(=O)/C(=C(\c1ccc(Br)cc1)S(=O)(=O)CCC)c1ccc(Br)cc1 and O=C1NC2OCC(O)C(O)C2O1 (stereo not given) cannot be ordered by TGI: over 10 µM for the first, over 100 µM for the second.

System: M14 melanoma
Experiment: NCI-60 cell line screen, 48 h

Molecule CC(=O)O.[Au].c1ccc([PH+](c2ccccc2)c2ccccc2)cc1 has a GI50 of 1.39 µM.

Compared with CC(=O)O.[Au].c1ccc([PH+](c2ccccc2)c2ccccc2)cc1, C/C(=C1/CCC/C(=C(/C)c2ccccc2)C1=O)c1ccccc1 is higher in TGI: 2.77 µM for the first, over 100 µM for the second.

COC(=O)C(=O)C(C(=O)C=C(C)C)C(=O)C(=O)Nc1ccc(C)cc1C (stereo not given) and CCCS(=O)(=O)/C(=C(\c1ccc(Br)cc1)S(=O)(=O)CCC)c1ccc(Br)cc1 cannot be ordered by TGI: over 100 µM for the first, over 10 µM for the second.

With O=C1NC2OCC(O)C(O)C2O1 (stereo not given) the TGI was over 100 µM.

System: M19-MEL melanoma
Experiment: NCI-60 cell line screen, 48 h

CC(=O)O.[Au].c1ccc([PH+](c2ccccc2)c2ccccc2)cc1 showed a GI50 of 2.67 µM.

Compared with CC(=O)O.[Au].c1ccc([PH+](c2ccccc2)c2ccccc2)cc1, C/C(=C1/CCC/C(=C(/C)c2ccccc2)C1=O)c1ccccc1 is 3.7-fold higher in TGI: 15.6 µM for the first, 58.3 µM for the second.

First: COC(=O)C(=O)C(C(=O)C=C(C)C)C(=O)C(=O)Nc1ccc(C)cc1C (stereo not given)
Second: COC(=O)C(=Cc1cc(OC)c(OC)c(OC)c1-c1cc2c(cc1C(C)=O)OCO2)C(=O)OC
The TGI of the first is higher: over 100 µM for the first, 75 µM for the second.

CCCS(=O)(=O)/C(=C(\c1ccc(Br)cc1)S(=O)(=O)CCC)c1ccc(Br)cc1 and O=C1NC2OCC(O)C(O)C2O1 (stereo not given) cannot be ordered by TGI: over 10 µM for the first, over 100 µM for the second.

System: MALME-3M melanoma
Experiment: NCI-60 cell line screen, 48 h

In the case of CC(=O)O.[Au].c1ccc([PH+](c2ccccc2)c2ccccc2)cc1, the GI50 is reported as 1.62 µM.

Going from CC(=O)O.[Au].c1ccc([PH+](c2ccccc2)c2ccccc2)cc1 to C/C(=C1/CCC/C(=C(/C)c2ccccc2)C1=O)c1ccccc1, the TGI rises from 3.15 µM to 46.7 µM (15-fold).

Going from COC(=O)C(=O)C(C(=O)C=C(C)C)C(=O)C(=O)Nc1ccc(C)cc1C (stereo not given) to COC(=O)C(=Cc1cc(OC)c(OC)c(OC)c1-c1cc2c(cc1C(C)=O)OCO2)C(=O)OC, the TGI falls from over 100 µM to 78.3 µM.

CCCS(=O)(=O)/C(=C(\c1ccc(Br)cc1)S(=O)(=O)CCC)c1ccc(Br)cc1 and O=C1NC2OCC(O)C(O)C2O1 (stereo not given) cannot be ordered by TGI: over 10 µM for the first, over 100 µM for the second.

System: MOLT-4 leukemia
Experiment: NCI-60 cell line screen, 48 h

In the case of CC(=O)O.[Au].c1ccc([PH+](c2ccccc2)c2ccccc2)cc1, the GI50 is reported as 1.61 µM.

Compared with CC(=O)O.[Au].c1ccc([PH+](c2ccccc2)c2ccccc2)cc1, C/C(=C1/CCC/C(=C(/C)c2ccccc2)C1=O)c1ccccc1 is 15-fold higher in TGI: 4.17 µM for the first, 64.3 µM for the second.

COC(=O)C(=O)C(C(=O)C=C(C)C)C(=O)C(=O)Nc1ccc(C)cc1C (stereo not given) and COC(=O)C(=Cc1cc(OC)c(OC)c(OC)c1-c1cc2c(cc1C(C)=O)OCO2)C(=O)OC cannot be ordered by TGI: over 100 µM for the first, over 211 µM for the second.

Molecule CCCS(=O)(=O)/C(=C(\c1ccc(Br)cc1)S(=O)(=O)CCC)c1ccc(Br)cc1 has a TGI of over 10 µM.
